Experimental findings from patent US20240239861A1, “GLUCAGON-RECEPTOR SELECTIVE POLYPEPTIDES AND METHODS OF USE THEREOF” (i2O Therapeutics, Inc., priority 2016, published 2024) are described below.

Where two headings read alike, the source gives them in different places. *1 amine or outer side, *2 acyl side, *3 side chain or, on linkers, in order; H or OH if unused. Where a SMILES comes first, the peptide text is derived from it. Side-chain parts run from the residue outwards. [ ]: non-standard residue; d: D form. The star is where a group is joined. C18 diacid = O=C(O)CCCCCCCCCCCCCCCCC(=O)*; γGlu = O=C(O)[C@H](CCC(=O)[*:2])N[*:1]; Palmitoyl = CCCCCCCCCCCCCCCC(=O)*; AEEA = NCCOCCOCC(=O)O; Aib = CC(C)(N)C(=O)O Where only a bound is given, the exact number is not on record here.

In one assay the target is human GLP-1R (Homo sapiens, UniProt P43220). The experiment in a line: Peptide-receptor mediated cAMP accumulation (LANCE Ultra cAMP) in CHO-K1 cells transfected with human GLP-1R. Format: cell-based.
A further assay deals with human GCGR (Homo sapiens, UniProt P47871). The experiment in a line: Peptide-receptor mediated cAMP accumulation (LANCE Ultra cAMP) in CHO-K1 cells transfected with human GCGR. Format: cell-based.
[1] abbreviates: Table 7, GLP-1R, read-out: GLP-1R pEC50 (converted).
[2] abbreviates: read-out: GluR pEC50 (converted).

Sequence of human GCGR (P47871 26-477): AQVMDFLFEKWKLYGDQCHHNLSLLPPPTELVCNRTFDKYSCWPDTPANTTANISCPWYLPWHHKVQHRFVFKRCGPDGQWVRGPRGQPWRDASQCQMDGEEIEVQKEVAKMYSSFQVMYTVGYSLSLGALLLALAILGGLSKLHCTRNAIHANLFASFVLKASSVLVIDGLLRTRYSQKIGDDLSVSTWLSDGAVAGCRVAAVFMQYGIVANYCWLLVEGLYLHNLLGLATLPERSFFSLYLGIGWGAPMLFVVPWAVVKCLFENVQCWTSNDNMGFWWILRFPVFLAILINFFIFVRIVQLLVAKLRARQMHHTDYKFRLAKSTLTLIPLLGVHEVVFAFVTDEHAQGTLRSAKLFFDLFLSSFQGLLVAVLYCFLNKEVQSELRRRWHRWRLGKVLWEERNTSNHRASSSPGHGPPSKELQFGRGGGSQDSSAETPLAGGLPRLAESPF
Sequence of human GLP-1R (P43220 24-463): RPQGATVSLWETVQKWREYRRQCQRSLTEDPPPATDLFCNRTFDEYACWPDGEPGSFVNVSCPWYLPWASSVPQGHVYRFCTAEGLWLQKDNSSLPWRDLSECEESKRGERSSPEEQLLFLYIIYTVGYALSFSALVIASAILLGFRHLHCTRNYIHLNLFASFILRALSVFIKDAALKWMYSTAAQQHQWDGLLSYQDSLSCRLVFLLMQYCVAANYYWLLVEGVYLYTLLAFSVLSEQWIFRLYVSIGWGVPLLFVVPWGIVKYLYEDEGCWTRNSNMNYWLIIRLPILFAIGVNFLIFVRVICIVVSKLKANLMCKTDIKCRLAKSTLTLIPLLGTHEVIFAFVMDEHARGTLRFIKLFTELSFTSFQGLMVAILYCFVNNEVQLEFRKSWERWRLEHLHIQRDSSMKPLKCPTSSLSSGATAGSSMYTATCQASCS

Turning to `CC(C)C[C@H](NC(=O)[C@H](Cc1ccc(O)cc1)NC(=O)[C@H](CCCCN)NC(=O)[C@H](CO)NC(=O)[C@H](Cc1ccc(O)cc1)NC(=O)[C@H](CC(=O)O)NC(=O)[C@H](CO)NC(=O)[C@@H](NC(=O)[C@H](Cc1ccccc1)NC(=O)[C@@H](NC(=O)CNC(=O)[C@H](CCC(N)=O)NC(=O)[C@H](CO)NC(=O)[C@@H](N)Cc1c[nH]c2ccccc12)[C@@H](C)O)[C@@H](C)O)C(=O)N[C@@H](CC(=O)O)C(=O)NC(C)(C)C(=O)N[C@@H](CCCCN)C(=O)N[C@@H](C)C(=O)N[C@@H](C)C(=O)N[C@@H](CCC(N)=O)C(=O)N[C@@H](CCC(=O)O)C(=O)N[C@@H](Cc1ccccc1)C(=O)N[C@H](C(=O)NC(C)(C)C(=O)N[C@@H](Cc1c[nH]c2ccccc12)C(=O)N[C@@H](CC(C)C)C(=O)N[C@@H](CCC(=O)O)C(=O)N[C@@H](CC(=O)O)C(=O)N[C@@H](CCC(=O)O)C(=O)N1CCC[C@H]1C(=O)N[C@@H](CO)C(=O)N[C@@H](CO)C(=O)NCC(=O)N[C@@H](CCCCN)C(=O)N1CCC[C@H]1C(=O)N1CCC[C@H]1C(=O)N1CCC[C@H]1C(=O)N[C@@H](CO)C(=O)O)C(C)C` [Compound A93] (H-WSQGTFTSDYSKYLD[Aib]KAAQEFV[Aib]WLEDEPSSGKPPPS-OH; N-terminus assumed), the EC50 was greater than 1 nM at human GLP-1R (hGLP1 pEC50 (cAMP mean (n = 3): 11 point curve starting at 1 nM, Table 3)) and 0.0126 nM on human GCGR (Table 3).
For the compound `CCCCCCCCCCCCCCCC(=O)N[C@@H](CCC(=O)NCCCC[C@H](NC(=O)[C@@H](NC(=O)[C@H](Cc1ccccc1)NC(=O)[C@H](CCC(=O)O)NC(=O)[C@H](CCC(N)=O)NC(=O)[C@H](C)NC(=O)[C@H](Cc1ccc(O)cc1)NC(=O)[C@H](CCCCN)NC(=O)C(C)(C)NC(=O)[C@H](CC(=O)O)NC(=O)[C@H](CC(C)C)NC(=O)[C@H](Cc1ccc(O)cc1)NC(=O)[C@H](CCCCN)NC(=O)[C@H](CO)NC(=O)[C@H](Cc1ccc(O)cc1)NC(=O)[C@H](CC(=O)O)NC(=O)[C@H](CO)NC(=O)[C@@H](NC(=O)[C@H](Cc1ccccc1)NC(=O)[C@@H](NC(=O)CNC(=O)[C@H](Cc1c[nH]cn1)NC(=O)[C@H](CO)NC(=O)[C@@H](N)Cc1ccc(O)cc1)[C@@H](C)O)[C@@H](C)O)C(C)C)C(=O)N[C@@H](Cc1c[nH]c2ccccc12)C(=O)N[C@@H](CC(C)C)C(=O)N[C@@H](CCC(=O)O)C(=O)N[C@@H](CC(=O)O)C(=O)N[C@@H](CCC(=O)O)C(=O)N1CCC[C@H]1C(=O)N[C@@H](CO)C(=O)N[C@@H](CO)C(=O)NCC(=O)N[C@@H](C)C(=O)N1CCC[C@H]1C(=O)N1CCC[C@H]1C(=O)N1CCC[C@H]1C(=O)N[C@@H](CO)C(=O)O)C(=O)O` [Compound B2], the EC50 is greater than 1000 nM on human GLP-1R (setting [1]) and 0.00794 nM at human GCGR (setting [2]).
The corresponding values for `CCCCCCCCCCCCCCCC(=O)N[C@@H](CCC(=O)NCCCC[C@H](NC(=O)[C@H](CC(=O)O)NC(=O)[C@H](CO)NC(=O)[C@@H](NC(=O)[C@H](Cc1ccccc1)NC(=O)[C@@H](NC(=O)CNC(=O)[C@H](Cc1c[nH]cn1)NC(=O)[C@H](CO)NC(=O)[C@@H](N)Cc1ccc(O)cc1)[C@@H](C)O)[C@@H](C)O)C(=O)N[C@@H](CO)C(=O)N[C@@H](CCCCN)C(=O)N[C@@H](Cc1ccc(O)cc1)C(=O)N[C@@H](CC(C)C)C(=O)N[C@@H](CC(=O)O)C(=O)NC(C)(C)C(=O)N[C@@H](CCCCN)C(=O)N[C@@H](Cc1ccc(O)cc1)C(=O)N[C@@H](C)C(=O)N[C@@H](CCC(N)=O)C(=O)N[C@@H](CCC(=O)O)C(=O)N[C@@H](Cc1ccccc1)C(=O)N[C@H](C(=O)NC(C)(C)C(=O)N[C@@H](Cc1c[nH]c2ccccc12)C(=O)N[C@@H](CC(C)C)C(=O)N[C@@H](CCC(=O)O)C(=O)N[C@@H](CC(=O)O)C(=O)N[C@@H](CCC(=O)O)C(=O)N1CCC[C@H]1C(=O)N[C@@H](CO)C(=O)N[C@@H](CO)C(=O)NCC(=O)N[C@@H](C)C(=O)N1CCC[C@H]1C(=O)N1CCC[C@H]1C(=O)N1CCC[C@H]1C(=O)N[C@@H](CO)C(=O)O)C(C)C)C(=O)O` [Compound B4] (H-YSHGTFTSDK([γGlu-Palmitoyl])SKYLD[Aib]KYAQEFV[Aib]WLEDEPSSGAPPPS-OH) are greater than 1000 nM and 0.794 nM.
The like results for `CC(C)C[C@H](NC(=O)[C@H](Cc1ccc(O)cc1)NC(=O)[C@H](CCCCN)NC(=O)[C@H](CO)NC(=O)[C@H](Cc1ccc(O)cc1)NC(=O)[C@H](CC(=O)O)NC(=O)[C@H](CO)NC(=O)[C@@H](NC(=O)[C@H](Cc1ccccc1)NC(=O)[C@@H](NC(=O)CNC(=O)[C@H](Cc1c[nH]cn1)NC(=O)[C@H](CO)NC(=O)[C@@H](N)Cc1ccc(O)cc1)[C@@H](C)O)[C@@H](C)O)C(=O)N[C@@H](CC(=O)O)C(=O)NC(C)(C)C(=O)N[C@@H](CCCCN)C(=O)N[C@@H](Cc1ccc(O)cc1)C(=O)N[C@@H](C)C(=O)N[C@@H](CCC(N)=O)C(=O)N[C@@H](CCC(=O)O)C(=O)N[C@@H](Cc1ccccc1)C(=O)N[C@H](C(=O)NC(C)(C)C(=O)N[C@@H](Cc1c[nH]c2ccccc12)C(=O)N[C@@H](CC(C)C)C(=O)N[C@@H](CCC(=O)O)C(=O)N[C@@H](CC(=O)O)C(=O)N[C@@H](CCC(=O)O)C(=O)N1CCC[C@H]1C(=O)N[C@@H](CO)C(=O)N[C@@H](CO)C(=O)N[C@@H](CCCCNC(=O)COCCOCCNC(=O)COCCOCCNC(=O)CC[C@H](NC(=O)CCCCCCCCCCCCCCCCC(=O)O)C(=O)O)C(=O)N[C@@H](C)C(=O)N1CCC[C@H]1C(=O)N1CCC[C@H]1C(=O)N1CCC[C@H]1C(=O)N[C@@H](CO)C(=O)O)C(C)C` [Compound B5] were, in that order, greater than 1000 nM and 0.251 nM.
Turning to `CC(C)C[C@H](NC(=O)[C@H](Cc1c[nH]c2ccccc12)NC(=O)[C@H](CCCCNC(=O)COCCOCCNC(=O)COCCOCCNC(=O)CC[C@H](NC(=O)CCCCCCCCCCCCCCCCC(=O)O)C(=O)O)NC(=O)[C@@H](NC(=O)[C@H](Cc1ccccc1)NC(=O)[C@H](CCC(=O)O)NC(=O)[C@H](CCC(N)=O)NC(=O)[C@H](C)NC(=O)[C@H](Cc1ccc(O)cc1)NC(=O)[C@H](CCCCN)NC(=O)C(C)(C)NC(=O)[C@H](CC(=O)O)NC(=O)[C@H](CC(C)C)NC(=O)[C@H](Cc1ccc(O)cc1)NC(=O)[C@H](CCCCN)NC(=O)[C@H](CO)NC(=O)[C@H](Cc1ccc(O)cc1)NC(=O)[C@H](CC(=O)O)NC(=O)[C@H](CO)NC(=O)[C@@H](NC(=O)[C@H](Cc1ccccc1)NC(=O)[C@@H](NC(=O)CNC(=O)[C@H](Cc1c[nH]cn1)NC(=O)[C@H](CO)NC(=O)[C@@H](N)Cc1ccc(O)cc1)[C@@H](C)O)[C@@H](C)O)C(C)C)C(=O)N[C@@H](CCC(=O)O)C(=O)N[C@@H](CC(=O)O)C(=O)N[C@@H](CCC(=O)O)C(=O)N1CCC[C@H]1C(=O)N[C@@H](CO)C(=O)N[C@@H](CO)C(=O)NCC(=O)N[C@@H](C)C(=O)N1CCC[C@H]1C(=O)N1CCC[C@H]1C(=O)N1CCC[C@H]1C(=O)N[C@@H](CO)C(=O)O` [Compound B6], the EC50 on human GLP-1R (setting [1]) was greater than 1000 nM; at human GCGR (setting [2]), 0.0794 nM.
As to `CC(C)C[C@H](NC(=O)[C@H](Cc1ccc(O)cc1)NC(=O)[C@H](CCCCN)NC(=O)[C@H](CO)NC(=O)[C@H](Cc1ccc(O)cc1)NC(=O)[C@H](CC(=O)O)NC(=O)[C@H](CO)NC(=O)[C@@H](NC(=O)[C@H](Cc1ccccc1)NC(=O)[C@@H](NC(=O)CNC(=O)[C@H](Cc1c[nH]cn1)NC(=O)[C@H](CO)NC(=O)[C@@H](N)Cc1ccc(O)cc1)[C@@H](C)O)[C@@H](C)O)C(=O)N[C@@H](CC(=O)O)C(=O)N[C@@H](CCCCNC(=O)COCCOCCNC(=O)COCCOCCNC(=O)CC[C@H](NC(=O)CCCCCCCCCCCCCCCCC(=O)O)C(=O)O)C(=O)N[C@@H](CCCCN)C(=O)N[C@@H](Cc1ccc(O)cc1)C(=O)N[C@@H](C)C(=O)N[C@@H](CCC(N)=O)C(=O)N[C@@H](CCC(=O)O)C(=O)N[C@@H](Cc1ccccc1)C(=O)N[C@H](C(=O)NC(C)(C)C(=O)N[C@@H](Cc1c[nH]c2ccccc12)C(=O)N[C@@H](CC(C)C)C(=O)N[C@@H](CCC(=O)O)C(=O)N[C@@H](CC(=O)O)C(=O)N[C@@H](CCC(=O)O)C(=O)N1CCC[C@H]1C(=O)N[C@@H](CO)C(=O)N[C@@H](CO)C(=O)NCC(=O)N[C@@H](C)C(=O)N1CCC[C@H]1C(=O)N1CCC[C@H]1C(=O)N1CCC[C@H]1C(=O)N[C@@H](CO)C(=O)O)C(C)C` [Compound B7], the EC50 is greater than 1000 nM at human GLP-1R (setting [1]) and 2.51 nM at human GCGR (setting [2]).
The like results for `CC(C)C[C@H](NC(=O)[C@H](Cc1ccc(O)cc1)NC(=O)[C@H](CCCCN)NC(=O)[C@H](CO)NC(=O)[C@H](CCCCNC(=O)COCCOCCNC(=O)COCCOCCNC(=O)CC[C@H](NC(=O)CCCCCCCCCCCCCCCCC(=O)O)C(=O)O)NC(=O)[C@H](CC(=O)O)NC(=O)[C@H](CO)NC(=O)[C@@H](NC(=O)[C@H](Cc1ccccc1)NC(=O)[C@@H](NC(=O)CNC(=O)[C@H](Cc1c[nH]cn1)NC(=O)[C@H](CO)NC(=O)[C@@H](N)Cc1ccc(O)cc1)[C@@H](C)O)[C@@H](C)O)C(=O)N[C@@H](CC(=O)O)C(=O)NC(C)(C)C(=O)N[C@@H](CCCCN)C(=O)N[C@@H](Cc1ccc(O)cc1)C(=O)N[C@@H](C)C(=O)N[C@@H](CCC(N)=O)C(=O)N[C@@H](CCC(=O)O)C(=O)N[C@@H](Cc1ccccc1)C(=O)N[C@H](C(=O)NC(C)(C)C(=O)N[C@@H](Cc1c[nH]c2ccccc12)C(=O)N[C@@H](CC(C)C)C(=O)N[C@@H](CCC(=O)O)C(=O)N[C@@H](CC(=O)O)C(=O)N[C@@H](CCC(=O)O)C(=O)N1CCC[C@H]1C(=O)N[C@@H](CO)C(=O)N[C@@H](CO)C(=O)NCC(=O)N[C@@H](C)C(=O)N1CCC[C@H]1C(=O)N1CCC[C@H]1C(=O)N1CCC[C@H]1C(=O)N[C@@H](CO)C(=O)O)C(C)C` [Compound B8] (H-YSHGTFTSDK([AEEA-AEEA-γGlu-C18 diacid])SKYLD[Aib]KYAQEFV[Aib]WLEDEPSSGAPPPS-OH) were, in that order, greater than 1000 nM and 0.0251 nM.
